Test results as given in ChEMBL document CHEMBL4828709, “Discovery of 2,4-pyrimidinediamine derivatives as potent dual inhibitors of ALK and HDAC” (Eur J Med Chem, 2021).
Calls of active or inactive are those of the source. The calls are words filed in the database; no cut-off is given here.

Experiments:
[1] = test system: MDA-MB-231; assay: Induction of apoptosis in human MDA-MB-231 cells assessed as late apoptotic cells at 2 uM measured after 24 hrs by Annexin V-FITC/PI staining based flowcytometry ( Rvb = 5.28%); type: functional
[2] = test system: A549; assay: Potency index, ratio of ceritinib IC50 to test compound IC50 for human A549 cells assessed as inhibition of cell proliferation measured after 72 hrs by CCK8 assay; type: functional
[3] = test system: MDA-MB-231; assay: Induction of apoptosis in human MDA-MB-231 cells assessed as necrotic cells at 4 uM measured after 24 hrs by Annexin V-FITC/PI staining based flowcytometry (reference value: 0.98%); type: functional
[4] = target: T1, ALK tyrosine kinase receptor (Homo sapiens, UniProt Q9UM73); assay: Inhibition of ALK (unknown origin) at 100 nM preincubated for 10 mins followed by addition of substrate and ATP for 25 mins by caliper EZ reader method; conditions: time 35.0 min
T1 sequence (Q9UM73 19-1620 limits assumed): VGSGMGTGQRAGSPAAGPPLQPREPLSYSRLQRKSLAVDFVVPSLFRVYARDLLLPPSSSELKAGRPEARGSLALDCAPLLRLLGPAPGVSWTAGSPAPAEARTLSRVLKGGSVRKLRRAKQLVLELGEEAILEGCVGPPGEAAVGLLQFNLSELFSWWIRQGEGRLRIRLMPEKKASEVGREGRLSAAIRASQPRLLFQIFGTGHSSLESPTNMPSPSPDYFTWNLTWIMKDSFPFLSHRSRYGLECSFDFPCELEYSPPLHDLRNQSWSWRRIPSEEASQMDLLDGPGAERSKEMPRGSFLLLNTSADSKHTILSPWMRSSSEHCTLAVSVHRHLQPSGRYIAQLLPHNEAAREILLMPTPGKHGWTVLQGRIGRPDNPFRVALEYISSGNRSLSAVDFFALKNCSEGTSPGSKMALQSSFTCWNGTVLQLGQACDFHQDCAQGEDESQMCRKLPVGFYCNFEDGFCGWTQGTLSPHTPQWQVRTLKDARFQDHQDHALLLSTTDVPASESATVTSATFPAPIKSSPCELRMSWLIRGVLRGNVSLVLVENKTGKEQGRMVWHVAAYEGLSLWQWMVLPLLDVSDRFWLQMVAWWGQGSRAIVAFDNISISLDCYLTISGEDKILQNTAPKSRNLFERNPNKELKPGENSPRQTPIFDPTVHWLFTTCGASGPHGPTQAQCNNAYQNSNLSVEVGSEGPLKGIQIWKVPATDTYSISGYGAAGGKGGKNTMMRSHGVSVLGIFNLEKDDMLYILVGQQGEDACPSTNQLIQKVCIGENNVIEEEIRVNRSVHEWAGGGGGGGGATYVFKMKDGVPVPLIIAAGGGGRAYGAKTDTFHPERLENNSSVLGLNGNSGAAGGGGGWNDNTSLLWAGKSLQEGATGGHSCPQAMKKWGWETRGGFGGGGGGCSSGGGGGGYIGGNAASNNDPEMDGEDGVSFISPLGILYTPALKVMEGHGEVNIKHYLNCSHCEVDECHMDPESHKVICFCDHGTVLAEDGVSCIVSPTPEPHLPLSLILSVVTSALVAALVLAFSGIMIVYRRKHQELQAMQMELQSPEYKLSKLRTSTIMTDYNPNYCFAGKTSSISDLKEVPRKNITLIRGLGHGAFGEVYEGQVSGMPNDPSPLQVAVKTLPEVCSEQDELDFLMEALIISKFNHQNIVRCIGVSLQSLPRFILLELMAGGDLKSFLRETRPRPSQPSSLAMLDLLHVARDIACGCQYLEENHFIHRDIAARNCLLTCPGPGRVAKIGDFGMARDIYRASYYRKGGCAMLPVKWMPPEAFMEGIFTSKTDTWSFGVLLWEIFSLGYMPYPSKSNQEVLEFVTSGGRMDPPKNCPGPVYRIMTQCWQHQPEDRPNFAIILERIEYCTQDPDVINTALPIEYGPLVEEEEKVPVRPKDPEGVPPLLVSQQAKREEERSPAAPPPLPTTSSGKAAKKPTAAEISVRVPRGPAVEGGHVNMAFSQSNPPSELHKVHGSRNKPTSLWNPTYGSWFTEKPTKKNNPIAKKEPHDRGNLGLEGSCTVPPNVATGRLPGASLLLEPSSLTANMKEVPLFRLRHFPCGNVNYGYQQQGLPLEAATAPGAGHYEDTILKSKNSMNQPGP

[5] = test system: SH-SY5Y; assay: Cell cycle arrest in human SH-SY5Y cells assessed as accumulation of cells at G2 phase at 1 uM measured after 24 hrs by PI staining based flowcytometry method (reference value: 13.23%); type: functional
[6] = test system: MDA-MB-231; assay: Induction of apoptosis in human MDA-MB-231 cells assessed as early apoptotic cells at 1 uM measured after 24 hrs by Annexin V-FITC/PI staining based flowcytometry ( Rvb = […]%); type: functional
[7] = test system: HepG2; assay: Potency index, ratio of ceritinib IC50 to test compound IC50 for human HepG2 cells assessed as inhibition of cell proliferation measured after 72 hrs by CCK8 assay; type: functional
[8] = Potency index, ratio of ceritinib IC50 to test compound IC50 for human SKNBE2 cells harboring wild type ALK assessed as inhibition of cell proliferation measured after 72 hrs by CCK8 assay; type: functional
[9] = target: T1, ALK tyrosine kinase receptor; assay: Inhibition of human ALK in human SH-SY5Y cells assessed as inhibition of ALK phosphorylation at Tyr1278 residue at 4 uM measured after 24 hrs by Western blot assay; type: cell-based
[10] = MRT (0 to infinity) in Sprague-Dawley rat at 1 mg/kg, iv measured for 12 hrs by LC-MS/MS analysis; type: ADME, organism-based; conditions: in vivo
[11] = test system: MDA-MB-231; assay: Potency index, ratio of ceritinib IC50 to test compound IC50 for human MDA-MB-231 cells assessed as inhibition of cell proliferation measured after 72 hrs by CCK8 assay; type: functional
[12] = species on record: Homo sapiens; assay: Inhibition of human CDK at 1 uM
[13] = target: T2, Protein deacetylase HDAC6 (Homo sapiens, UniProt Q9UBN7)
T2 sequence (Q9UBN7 whole entry): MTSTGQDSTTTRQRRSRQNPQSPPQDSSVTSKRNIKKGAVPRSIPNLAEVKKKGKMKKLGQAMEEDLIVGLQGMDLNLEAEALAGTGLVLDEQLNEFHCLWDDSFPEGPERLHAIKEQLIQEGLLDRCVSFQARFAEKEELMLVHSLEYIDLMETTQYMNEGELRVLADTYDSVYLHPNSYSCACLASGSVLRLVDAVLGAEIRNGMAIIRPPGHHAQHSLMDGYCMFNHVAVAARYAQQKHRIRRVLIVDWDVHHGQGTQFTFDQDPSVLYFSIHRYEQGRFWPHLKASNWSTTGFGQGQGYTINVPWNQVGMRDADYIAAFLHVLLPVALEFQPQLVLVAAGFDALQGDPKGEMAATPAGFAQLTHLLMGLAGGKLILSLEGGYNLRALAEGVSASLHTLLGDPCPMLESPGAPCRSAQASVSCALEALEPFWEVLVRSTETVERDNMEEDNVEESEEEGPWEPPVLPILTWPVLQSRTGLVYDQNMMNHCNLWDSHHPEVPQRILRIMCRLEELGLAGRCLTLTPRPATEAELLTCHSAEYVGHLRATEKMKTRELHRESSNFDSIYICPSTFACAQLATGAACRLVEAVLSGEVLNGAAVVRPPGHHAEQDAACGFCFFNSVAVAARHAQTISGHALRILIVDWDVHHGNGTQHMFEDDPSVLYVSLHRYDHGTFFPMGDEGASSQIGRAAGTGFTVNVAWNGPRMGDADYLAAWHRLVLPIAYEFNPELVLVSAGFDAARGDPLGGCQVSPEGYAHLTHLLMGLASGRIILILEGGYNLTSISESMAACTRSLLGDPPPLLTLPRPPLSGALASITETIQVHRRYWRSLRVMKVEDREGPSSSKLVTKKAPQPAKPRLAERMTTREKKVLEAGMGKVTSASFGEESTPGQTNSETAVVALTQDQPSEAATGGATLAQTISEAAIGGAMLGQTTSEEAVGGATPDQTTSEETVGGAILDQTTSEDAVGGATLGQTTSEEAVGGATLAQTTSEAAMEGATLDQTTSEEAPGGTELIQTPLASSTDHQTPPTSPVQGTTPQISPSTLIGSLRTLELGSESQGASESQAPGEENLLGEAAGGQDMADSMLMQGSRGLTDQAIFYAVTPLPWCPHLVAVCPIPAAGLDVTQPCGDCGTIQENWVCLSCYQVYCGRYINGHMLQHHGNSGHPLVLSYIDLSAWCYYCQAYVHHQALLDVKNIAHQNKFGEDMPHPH
Description: Inhibition of HDAC6 (unknown origin)

[14] = test system: HepG2; assay: Potency index, ratio of crizotinib IC50 to test compound IC50 for human HepG2 cells assessed as inhibition of cell proliferation measured after 72 hrs by CCK8 assay; type: functional
[15] = target: T1, ALK tyrosine kinase receptor; assay: Inhibition of human ALK in human SH-SY5Y cells assessed as inhibition of ERK phosphorylation at Thr202/Tyr204 residue measured after 24 hrs by Western blot assay; type: cell-based; conditions: dose 1-4 µM
[16] = test system: SH-SY5Y; assay: Cell cycle arrest in human SH-SY5Y cells assessed as accumulation of cells at G1 phase at 1 uM measured after 24 hrs by PI staining based flowcytometry method (reference value: 59.8%); type: functional
[17] = test system: MDA-MB-231; assay: Induction of apoptosis in human MDA-MB-231 cells assessed as viable cells at 1 uM measured after 24 hrs by Annexin V-FITC/PI staining based flowcytometry (reference value: 93.14%); type: functional; conditions: read-out: Activity
[18] = test system: MDA-MB-231; assay: Induction of apoptosis in human MDA-MB-231 cells assessed as increase in blue fluorescence intensity at 1 to 4 uM measured after 24 hrs by Hoechst33258 staining based fluorescence microscopy; type: functional, cell-based; conditions: dose 1-4 µM
[19] = test system: SH-SY5Y; assay: Induction of apoptosis in human SH-SY5Y cells assessed as late apoptotic cells at 2 uM measured after 24 hrs by Annexin V-FITC/PI staining based flowcytometry (reference value: 14.32%); type: functional
[20] = test system: MDA-MB-231; assay: Induction of apoptosis in human MDA-MB-231 cells assessed as early apoptotic cells at 4 uM measured after 24 hrs by Annexin V-FITC/PI staining based flowcytometry (reference value: 0.64%); type: functional
[21] = target: T1, ALK tyrosine kinase receptor; assay: Inhibition of human ALK in human SH-SY5Y cells assessed as inhibition of Akt phosphorylation at Ser473 residue at 4 uM measured after 24 hrs by Western blot assay; type: cell-based
[22] = target: T1, ALK tyrosine kinase receptor; assay: Inhibition of human ALK in human SH-SY5Y cells assessed as inhibition of Akt phosphorylation at Ser473 residue measured after 24 hrs by Western blot assay; type: cell-based; conditions: dose 1-4 µM

SMILES: CC(C)S(=O)(=O)c1ccccc1Nc1nc(Nc2ccc(NC(=O)CCCCCCC(=O)NO)cc2)ncc1Cl
- Activity [1]: 7.72%
- Ratio IC50 [2]: 3
- Activity [3]: 3.86%
- inhibition [4]: 96.6%
- Activity [5]: 48.7%
- Activity [6]: 1.96%
- Ratio IC50 [7]: 3
- Ratio IC50 [8]: 3
- inhibition [9]: Active
- MRT [10]: 7.8 min
- Ratio IC50 [11]: 3
- inhibition [12]: 95%
- IC50 [13]: 4.4 nM
- Ratio IC50 [14]: 3
- inhibition [15]: Dose-Dependent Effect
- Activity [16]: 32.97%
- viability at 1 µM [17]: 87.9%
- Activity [18]: Active
- Activity [19]: 28.89%
- Activity [20]: 4.42%
- inhibition [21]: Active
- inhibition [22]: Dose-Dependent Effect
